RatioGI50 and GI50 data for 32 molecules are collected here from ChEMBL document CHEMBL2390909, “2-Arylpaullones are selective antitrypanosomal agents” (Eur J Med Chem, 2013).

Series [1] is described as follows: Selectivity index, ratio of GI50 for human THP1 macrophages to GI50 for blood stage of Trypanosoma brucei rhodesiense STIB 900.
Series [2] is described as follows: Cytotoxicity against human THP1 macrophages after 48 hrs by Alamar Blue assay. The series is classed as cell-based. Particulars: THP-1 macrophages.
For series [3], the system named is Trypanosoma brucei rhodesiense. The series can be described thus: Antitrypanosomal activity against blood stage of Trypanosoma brucei rhodesiense STIB 900 (S704) Tanzania after 70 hrs by Alamar Blue assay. It is filed as functional. The conditions noted are these: STIB 900, 70 h.

The structures appear in SMILES notation.

In the case of `CC(C)(C)c1ccc2[nH]c3c(c2c1)CC(=O)Nc1ccc(C(=O)/C=C/c2ccccc2)cc1-3`, the RatioGI50 in series [1] was >163.9. The concentration for 50% growth inhibition (GI50) (commonly the concentration at which growth is held to half of that of the control) at 48 h in series [2] was > 100 µM. For the same molecule, in series [3], the GI50 is 0.61 µM.
The corresponding values for `COc1ccc(-c2ccc3c(c2)-c2[nH]c4ccc(C(C)(C)C)cc4c2CC(=O)N3)cc1` are >138.9, > 100 µM and 0.72 µM.
With `COc1cccc(-c2ccc3c(c2)-c2[nH]c4ccc(C(C)(C)C)cc4c2CC(=O)N3)c1`, the RatioGI50 in series [1] is >62.5. In series [2], the 50% growth inhibitory concentration (GI50) at 48 h is > 100 µM. The molecule also registered a GI50 in series [3] of 1.6 µM.
For `CN(C)c1cccc(-c2ccc3c(c2)-c2[nH]c4ccc(C(C)(C)C)cc4c2CC(=O)N3)c1`, the RatioGI50 in series [1] was 40.8. The same molecule returned a GI50 at 48 h in series [2] of 93.9 µM. In series [3], the concentration for 50% growth inhibition (GI50) came out at 2.3 µM.
For the molecule `CC(C)(C)c1ccc2[nH]c3c(c2c1)CC(=O)Nc1ccc(-c2ccc4c(c2)OCO4)cc1-3`, the RatioGI50 in series [1] is given as >131.6. In series [2], the concentration for 50% growth inhibition (GI50) at 48 h is > 100 µM. In series [3], this molecule showed a GI50 of 0.76 µM.
For the molecule `CC(C)(C)c1ccc2[nH]c3c(c2c1)CC(=O)Nc1ccc(-c2ccc(N4CCOCC4)cc2)cc1-3`, in series [1], the RatioGI50 turned out to be 156.9. Besides, growth in series [2] was halved (GI50 at 48 h) at 80 µM. The 50% growth inhibitory concentration (GI50) in series [3] was 0.51 µM.
On to `CC(C)(C)c1ccc2[nH]c3c(c2c1)CC(=O)Nc1ccc(CCC(=O)c2ccccc2)cc1-3`, for which the RatioGI50 in series [1] is given as >88.8. Besides, in series [2], the GI50 at 48 h was > 100 µM. In series [3], this molecule yielded a 50% growth inhibitory concentration (GI50) of 2.3 µM.
As to `CC(C)(C)c1ccc2[nH]c3c(c2c1)CC(=O)Nc1ccc(/C=C/C(=O)N2CCOCC2)cc1-3`, the RatioGI50 in series [1] came to 3.5. Also, the 50% growth inhibitory concentration (GI50) at 48 h in series [2] amounted to 13.7 µM. Further, the GI50 in series [3] turned out to be 3.9 µM.
Take `CC(C)(C)c1ccc2[nH]c3c(c2c1)CC(=O)Nc1ccc(/C=C/C(=O)N2CCCCC2)cc1-3`: the RatioGI50 in series [1] is 1.3. Besides, the concentration for 50% growth inhibition (GI50) at 48 h in series [2] was 6.2 µM. This molecule also registered a GI50 in series [3] of 4.7 µM.
As for `CCN(CC)C(=O)/C=C/c1ccc2c(c1)-c1[nH]c3ccc(C(C)(C)C)cc3c1CC(=O)N2`, the RatioGI50 in series [1] was 3.7. In addition, the 50% growth inhibitory concentration (GI50) at 48 h in series [2] is 4.1 µM. The same molecule had a concentration for 50% growth inhibition (GI50) in series [3] of 1.1 µM.
As to `CC(C)(C)c1ccc2[nH]c3c(c2c1)CC(=O)Nc1ccc(/C=C/C(=O)NCc2ccccc2)cc1-3`, the RatioGI50 in series [1] is recorded as <1. The molecule also returned a 50% growth inhibitory concentration (GI50) at 48 h in series [2] of 0.93 µM. Besides, the GI50 in series [3] worked out at 3.5 µM.
Take `CN1CCN(C(=O)/C=C/c2ccc3c(c2)-c2[nH]c4ccc(C(C)(C)C)cc4c2CC(=O)N3)CC1`: in series [1], the RatioGI50 is recorded as <1. Also, the GI50 at 48 h in series [2] came out at 17.8 µM. In series [3], this molecule registered a concentration for 50% growth inhibition (GI50) of 24.4 µM.
Consider `CC(C)(C)c1ccc2[nH]c3c(c2c1)CC(=O)Nc1ccc(/C=C/C(=O)Nc2ccccc2)cc1-3`, for which the RatioGI50 in series [1] is given as <1. This molecule returned a concentration for 50% growth inhibition (GI50) at 48 h in series [2] of 0.34 µM. The molecule further came in with a concentration for 50% growth inhibition (GI50) in series [3] of 1.5 µM.
Turning to `CC(C)(C)c1ccc2[nH]c3c(c2c1)CC(=O)Nc1ccc(/C=C/C(=O)Nc2cccc(Cl)c2)cc1-3`, in series [1], the RatioGI50 is <1. In addition, the GI50 at 48 h in series [2] amounted to 0.85 µM. Moreover, the GI50 in series [3] was found to be 1.6 µM.
The matching figures for `CC(C)(C)c1ccc2[nH]c3c(c2c1)CC(=O)Nc1ccc(/C=C/C(=O)Nc2ccc(Cl)cc2)cc1-3`: <1, 0.47 µM and 2.5 µM.
The corresponding values for `Cc1ccc(NC(=O)/C=C/c2ccc3c(c2)-c2[nH]c4ccc(C(C)(C)C)cc4c2CC(=O)N3)cc1` are <1, 1.3 µM and 1.7 µM.
On to `COc1ccc(NC(=O)/C=C/c2ccc3c(c2)-c2[nH]c4ccc(C(C)(C)C)cc4c2CC(=O)N3)cc1`, for which the RatioGI50 in series [1] was <1. For the same molecule, the GI50 at 48 h in series [2] worked out at 0.36 µM. Also, in series [3], the GI50 was 1.5 µM.
As to `CC(C)(C)c1ccc2[nH]c3c(c2c1)CC(=O)Nc1ccc(-c2ccccc2)cc1-3`, the RatioGI50 in series [1] is >55.6. The 50% growth inhibitory concentration (GI50) at 48 h in series [2] is > 100 µM. In series [3], this molecule had a GI50 of 1.8 µM.
With `COCCc1ccc(OCc2cccc(-c3ccc4c(c3)-c3[nH]c5ccc(C(C)(C)C)cc5c3CC(=O)N4)c2)cc1`, the RatioGI50 in series [1] is given as 7.6. This molecule also had a GI50 at 48 h in series [2] of 12.9 µM. The GI50 in series [3] came out at 1.7 µM.
Regarding `CC(C)(C)c1ccc2[nH]c3c(c2c1)CC(=O)Nc1ccc(-c2ccc(C(F)(F)F)cc2)cc1-3`, the RatioGI50 in series [1] is 21.2. This molecule had a 50% growth inhibitory concentration (GI50) at 48 h in series [2] of 55.1 µM. In series [3], this molecule showed a GI50 of 2.6 µM.
As to `CC(C)(C)c1ccc2[nH]c3c(c2c1)CC(=O)Nc1ccc(-c2ccc(OC(F)(F)F)cc2)cc1-3`, the RatioGI50 in series [1] is given as >33.3. Moreover, the GI50 at 48 h in series [2] is > 100 µM. In series [3], this molecule came in with a GI50 of 3 µM.
Turning to `CC(C)(C)c1ccc2[nH]c3c(c2c1)CC(=O)Nc1ccc(/C=C/C(=O)c2ccccc2)cc1-3`, in series [1], the RatioGI50 is 4.4. This molecule showed a 50% growth inhibitory concentration (GI50) at 48 h in series [2] of 17.6 µM. The same molecule had a GI50 in series [3] of 4 µM.
`COc1ccc(C(=O)/C=C/c2ccc3c(c2)-c2[nH]c4ccc(C(C)(C)C)cc4c2CC(=O)N3)cc1`: the RatioGI50 in series [1] is reported as 2.7. This molecule returned a 50% growth inhibitory concentration (GI50) at 48 h in series [2] of 32.6 µM. Further, halving of growth in series [3] (GI50) required 12.2 µM.
Consider `CC(C)(C)c1ccc2[nH]c3c(c2c1)CC(=O)Nc1ccc(/C=C/C(=O)c2ccc(Cl)cc2)cc1-3`, for which the RatioGI50 in series [1] amounted to 2.2. Also, the concentration for 50% growth inhibition (GI50) at 48 h in series [2] was found to be 40.8 µM. Moreover, the 50% growth inhibitory concentration (GI50) in series [3] is 18.3 µM.
Take `CC(C)(C)c1ccc2[nH]c3c(c2c1)CC(=O)Nc1ccc(/C=C/C(=O)c2ccco2)cc1-3`: in series [1], the RatioGI50 was determined as 2.3. This molecule also yielded a GI50 at 48 h in series [2] of 1.3 µM. Moreover, the GI50 in series [3] was determined as 0.57 µM.
Consider `CC(C)(C)c1ccc2[nH]c3c(c2c1)CC(=O)Nc1ccc(/C=C/C(=O)c2cccnc2)cc1-3`, for which the RatioGI50 in series [1] is given as 8.7. Moreover, the GI50 at 48 h in series [2] was determined as 47.9 µM. Moreover, it took 9 µM to inhibit growth in series [3] by half (GI50).
As to `COc1cc(C(=O)/C=C/c2ccc3c(c2)-c2[nH]c4ccc(C(C)(C)C)cc4c2CC(=O)N3)cc(OC)c1OC`, in series [1], the RatioGI50 came to 5.6. Also, growth in series [2] was halved (GI50 at 48 h) at 14.7 µM. This molecule also displayed a 50% growth inhibitory concentration (GI50) in series [3] of 2.6 µM.
The corresponding values for `COc1ccc(OC)c(C(=O)/C=C/c2ccc3c(c2)-c2[nH]c4ccc(C(C)(C)C)cc4c2CC(=O)N3)c1` are 1.8, 2.2 µM and 1.2 µM.
`COc1ccc(C(=O)/C=C/c2ccc3c(c2)-c2[nH]c4ccc(C(C)(C)C)cc4c2CC(=O)N3)c(OC)c1`: in series [1], the RatioGI50 is given as 5.8. This molecule also registered a concentration for 50% growth inhibition (GI50) at 48 h in series [2] of 31.4 µM. The molecule further displayed a GI50 in series [3] of 5.4 µM.
The corresponding values for `COc1ccc(C(=O)/C=C/c2ccc3c(c2)-c2[nH]c4ccc(C(C)(C)C)cc4c2CC(=O)N3)cc1OC` are 2.3, 9.6 µM and 4.2 µM.
As for `CC(C)(C)c1ccc2[nH]c3c(c2c1)CC(=O)Nc1ccc(/C=C/C(=O)c2cccs2)cc1-3`, the RatioGI50 in series [1] is on record as 3.4. The GI50 at 48 h in series [2] was 3.7 µM. Moreover, the GI50 in series [3] came out at 1.1 µM.
The matching figures for `CC(C)(C)c1ccc2[nH]c3c(c2c1)CC(=O)Nc1ccc(/C=C/C(=O)c2ccc(O)cc2)cc1-3`: 9.8, 72.6 µM and 7.4 µM.
